The values that follow come from article PMC9504648 (Marine Drugs, 2022).

Usually inhibition stands for the relative decrease from the control value, in per cent. By IC50 is commonly meant the midpoint of a concentration-inhibition curve. Read a high IC50 as lower potency.

The target of assay [1] is T1, NMDA receptor (NMDAR; GluN2B-containing) (Mus musculus, UniProt P35438+Q01097).
T1 construct: gene Grin2b; native receptor in DIV 10–12 cerebrocortical neurons; with GluN1
Briefly: Fluo-3 NMDA-induced Ca2+ influx in primary neurons, single concentration ([…], […] reduction in AUC). The assay is classed as cell-based.

Assay [2] addresses T1, NMDA receptor (NMDAR; GluN2B-containing). Briefly: Fluo-3 Ca2+ influx in primary neurons; […] inhibits NMDA response ([…] AUC); IC50 is against PbTx-2-induced influx. It is filed as cell-based.

T1 sequence (Q01097 27-1482, other chains not shown): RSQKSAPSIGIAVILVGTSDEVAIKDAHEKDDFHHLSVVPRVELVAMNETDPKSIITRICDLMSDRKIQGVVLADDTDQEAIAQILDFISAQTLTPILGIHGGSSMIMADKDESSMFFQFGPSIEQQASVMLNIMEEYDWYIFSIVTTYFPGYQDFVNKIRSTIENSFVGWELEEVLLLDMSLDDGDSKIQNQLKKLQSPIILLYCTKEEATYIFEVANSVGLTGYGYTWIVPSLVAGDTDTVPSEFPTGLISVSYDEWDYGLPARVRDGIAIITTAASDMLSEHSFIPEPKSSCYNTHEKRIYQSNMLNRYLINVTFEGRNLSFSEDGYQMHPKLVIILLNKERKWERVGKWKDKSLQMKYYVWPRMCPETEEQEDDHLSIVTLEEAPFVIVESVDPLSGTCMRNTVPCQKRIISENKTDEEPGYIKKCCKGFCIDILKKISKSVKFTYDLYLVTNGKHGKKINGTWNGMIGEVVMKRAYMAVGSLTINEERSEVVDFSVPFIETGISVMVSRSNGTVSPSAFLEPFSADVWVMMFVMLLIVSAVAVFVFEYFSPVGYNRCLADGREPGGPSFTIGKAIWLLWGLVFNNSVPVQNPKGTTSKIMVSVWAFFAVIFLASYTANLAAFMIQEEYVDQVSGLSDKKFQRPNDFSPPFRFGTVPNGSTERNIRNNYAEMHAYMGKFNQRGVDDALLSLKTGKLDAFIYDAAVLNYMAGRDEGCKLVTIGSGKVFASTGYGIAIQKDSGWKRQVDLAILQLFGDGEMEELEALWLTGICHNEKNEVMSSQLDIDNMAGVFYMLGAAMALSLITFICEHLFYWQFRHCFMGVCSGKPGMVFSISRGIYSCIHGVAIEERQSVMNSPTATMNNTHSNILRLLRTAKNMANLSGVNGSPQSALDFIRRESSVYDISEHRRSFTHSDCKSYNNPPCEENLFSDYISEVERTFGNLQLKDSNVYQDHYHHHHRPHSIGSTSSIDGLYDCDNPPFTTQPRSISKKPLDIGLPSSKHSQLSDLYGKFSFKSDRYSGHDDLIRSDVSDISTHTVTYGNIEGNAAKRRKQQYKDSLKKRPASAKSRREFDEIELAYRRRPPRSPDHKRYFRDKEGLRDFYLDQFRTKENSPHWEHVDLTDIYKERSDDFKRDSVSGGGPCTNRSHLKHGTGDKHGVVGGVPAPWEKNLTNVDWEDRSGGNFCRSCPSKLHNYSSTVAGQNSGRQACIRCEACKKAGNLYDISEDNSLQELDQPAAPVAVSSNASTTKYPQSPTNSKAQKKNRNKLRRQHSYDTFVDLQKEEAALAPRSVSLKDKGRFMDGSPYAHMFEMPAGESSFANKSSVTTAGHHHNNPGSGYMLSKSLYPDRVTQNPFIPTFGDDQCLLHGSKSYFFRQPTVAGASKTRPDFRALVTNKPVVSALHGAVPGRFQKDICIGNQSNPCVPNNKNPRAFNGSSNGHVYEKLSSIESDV

The compound `C[C@]12N[C@H](Cc3ccccc31)c1ccccc12` [MK-801] yielded an inhibition at 1 µM in assay [1] of 75%.

In turn, `CC(C(O)c1ccc(O)cc1)N1CCC(Cc2ccccc2)CC1` (centres unmarked) [ifenprodil] returned a half-inhibitory concentration (IC50) in assay [2] of 2200 nM.
